Data from patent US20100041089A1, “IMPROVED METHOD FOR DETECTING CHEMICAL […]” (priority 2006, published 2010).

Tested on: yeast genes (expressed mRNA)
Experiment: DNA chip measurement of expressed mRNA of yeast genes after culture with a toxic chemical substance
Type: cell-based, Saccharomyces cerevisiae S288C
Conditions: for level of expressed mRNA in the presence of chemical substance / level in the absence of chemical substance: cultured two hours with the chemical substance; for The level of expressed mRNA in the presence of chemical substance/The level of expressed mRNA in the absence of chemical substance: cultured two hours with substance
Summary of the method: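 Yeast S288C, YPD 25° C; toxicant at log phase, 2 h, sublethal growth-inhibiting conc.; no-chemical control. Hot SDS/acetate RNA extraction, oligo-dT mRNA, Cy3/Cy5-dUTP RT. Whole-genome chip, 65° C >12 h. Readout: treated/control intensity ratio, ≥2 significant.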

Substance: Manganese ethylenebis(dithiocarbamate) [(8)]
- The level of expressed mRNA in the presence of chemical substance/The level of expressed mRNA in the absence of chemical substance, yeast gene YBR036C (gene YBR036C, Metabolism protein genes, DNA chip fluorescence ratio): 0.7
- The level of expressed mRNA in the presence of chemical substance/The level of expressed mRNA in the absence of chemical substance, yeast gene YBR298C (gene YBR298C, Metabolism protein genes, DNA chip fluorescence ratio): 0.5
- The level of expressed mRNA in the presence of chemical substance/The level of expressed mRNA in the absence of chemical substance, yeast gene YDL067C (gene YDL067C (mitochondria-located protein gene), yeast cultured two hours with chemical substance, DNA chip fluorescence ratio to control): 1.1
- The level of expressed mRNA in the presence of chemical substance/The level of expressed mRNA in the absence of chemical substance, yeast gene YDL078C (gene YDL078C, Metabolism protein genes, DNA chip fluorescence ratio): 1.0
- The level of expressed mRNA in the presence of chemical substance/The level of expressed mRNA in the absence of chemical substance, yeast gene YDL215C (gene YDL215C, Metabolism protein genes, DNA chip fluorescence ratio): 1.1
- The level of expressed mRNA in the presence of chemical substance/The level of expressed mRNA in the absence of chemical substance, yeast gene YDR079W (gene YDR079W (mitochondria-located protein gene), yeast cultured two hours with chemical substance, DNA chip fluorescence ratio to control): 2.6
- The level of expressed mRNA in the presence of chemical substance/The level of expressed mRNA in the absence of chemical substance, yeast gene YDR297W (gene YDR297W, Metabolism protein genes, DNA chip fluorescence ratio): 1.5
- The level of expressed mRNA in the presence of chemical substance/The level of expressed mRNA in the absence of chemical substance, yeast gene YDR387C (gene YDR387C, Metabolism protein genes, DNA chip fluorescence ratio): 0.7
- The level of expressed mRNA in the presence of chemical substance/The level of expressed mRNA in the absence of chemical substance, yeast gene YGL035C (gene YGL035C, Metabolism protein genes, DNA chip fluorescence ratio): 1.3
- The level of expressed mRNA in the presence of chemical substance/The level of expressed mRNA in the absence of chemical substance, yeast gene YGR062C (gene YGR062C (mitochondria-located protein gene), yeast cultured two hours with chemical substance, DNA chip fluorescence ratio to control): 0.8
- The level of expressed mRNA in the presence of chemical substance/The level of expressed mRNA in the absence of chemical substance, yeast gene YGR287C (gene YGR287C, Metabolism protein genes, DNA chip fluorescence ratio): 1.3
- The level of expressed mRNA in the presence of chemical substance/The level of expressed mRNA in the absence of chemical substance, yeast gene YJL070C (gene YJL070C, Metabolism protein genes, DNA chip fluorescence ratio): 1.1
- The level of expressed mRNA in the presence of chemical substance/The level of expressed mRNA in the absence of chemical substance, yeast gene YJL096W (gene YJL096W (mitochondria-located protein gene), yeast cultured two hours with chemical substance, DNA chip fluorescence ratio to control): 1.3
- The level of expressed mRNA in the presence of chemical substance/The level of expressed mRNA in the absence of chemical substance, yeast gene YJL180C (gene YJL180C (mitochondria-located protein gene), yeast cultured two hours with chemical substance, DNA chip fluorescence ratio to control): 1.0
- The level of expressed mRNA in the presence of chemical substance/The level of expressed mRNA in the absence of chemical substance, yeast gene YKR009C (gene YKR009C, Metabolism protein genes, DNA chip fluorescence ratio): 0.9
- The level of expressed mRNA in the presence of chemical substance/The level of expressed mRNA in the absence of chemical substance, yeast gene YLR295C (gene YLR295C (mitochondria-located protein gene), yeast cultured two hours with chemical substance, DNA chip fluorescence ratio to control): 1.2
- The level of expressed mRNA in the presence of chemical substance/The level of expressed mRNA in the absence of chemical substance, yeast gene YLR351C (gene YLR351C, Metabolism protein genes, DNA chip fluorescence ratio): 1.2
- The level of expressed mRNA in the presence of chemical substance/The level of expressed mRNA in the absence of chemical substance, yeast gene YLR375W (gene YLR375W, Metabolism protein genes, DNA chip fluorescence ratio): 1.0
- The level of expressed mRNA in the presence of chemical substance/The level of expressed mRNA in the absence of chemical substance, yeast gene YMR023C (gene YMR023C (mitochondria-located protein gene), yeast cultured two hours with chemical substance, DNA chip fluorescence ratio to control): 1.4
- The level of expressed mRNA in the presence of chemical substance/The level of expressed mRNA in the absence of chemical substance, yeast gene YMR267W (gene YMR267W (mitochondria-located protein gene), yeast cultured two hours with chemical substance, DNA chip fluorescence ratio to control): 1.5
- The level of expressed mRNA in the presence of chemical substance/The level of expressed mRNA in the absence of chemical substance, yeast gene YMR267W (gene YMR267W, Metabolism protein genes, DNA chip fluorescence ratio): 1.5
- The level of expressed mRNA in the presence of chemical substance/The level of expressed mRNA in the absence of chemical substance, yeast gene YMR278W (gene YMR278W, Metabolism protein genes, DNA chip fluorescence ratio): 1.1
- The level of expressed mRNA in the presence of chemical substance/The level of expressed mRNA in the absence of chemical substance, yeast gene YMR293C (gene YMR293C, Metabolism protein genes, DNA chip fluorescence ratio): 1.0
- The level of expressed mRNA in the presence of chemical substance/The level of expressed mRNA in the absence of chemical substance, yeast gene YNL073W (gene YNL073W (mitochondria-located protein gene), yeast cultured two hours with chemical substance, DNA chip fluorescence ratio to control): 1.0
- The level of expressed mRNA in the presence of chemical substance/The level of expressed mRNA in the absence of chemical substance, yeast gene YNR072W (gene YNR072W, Metabolism protein genes, DNA chip fluorescence ratio): 0.9
- The level of expressed mRNA in the presence of chemical substance/The level of expressed mRNA in the absence of chemical substance, yeast gene YOL096C (gene YOL096C, Metabolism protein genes, DNA chip fluorescence ratio): 1.0
- The level of expressed mRNA in the presence of chemical substance/The level of expressed mRNA in the absence of chemical substance, yeast gene YOR180C (gene YOR180C, Metabolism protein genes, DNA chip fluorescence ratio): 0.9
- The level of expressed mRNA in the presence of chemical substance/The level of expressed mRNA in the absence of chemical substance, yeast gene YOR316C (gene YOR316C (mitochondria-located protein gene), yeast cultured two hours with chemical substance, DNA chip fluorescence ratio to control): 0.8
- The level of expressed mRNA in the presence of chemical substance/The level of expressed mRNA in the absence of chemical substance, yeast gene YOR363C (gene YOR363C, Metabolism protein genes, DNA chip fluorescence ratio): 1.1
- The level of expressed mRNA in the presence of chemical substance/The level of expressed mRNA in the absence of chemical substance, yeast gene YPL040C (gene YPL040C (mitochondria-located protein gene), yeast cultured two hours with chemical substance, DNA chip fluorescence ratio to control): 1.1
- The level of expressed mRNA in the presence of chemical substance/The level of expressed mRNA in the absence of chemical substance, yeast gene YPL134C (gene YPL134C (mitochondria-located protein gene), yeast cultured two hours with chemical substance, DNA chip fluorescence ratio to control): 1.3
- The level of expressed mRNA in the presence of chemical substance/The level of expressed mRNA in the absence of chemical substance, yeast gene YPR184W (gene YPR184W, Metabolism protein genes, DNA chip fluorescence ratio): 0.7
- level of expressed mRNA in the presence of chemical substance / level in the absence of chemical substance (yeast gene YAL018C): 1.6
- The level of expressed mRNA in the presence of chemical substance/The level of expressed mRNA in the absence of chemical substance (yeast gene YAL053W): 0.8
- level of expressed mRNA in the presence of chemical substance / level in the absence of chemical substance (yeast gene YAR047C): 0.8
- level of expressed mRNA in the presence of chemical substance / level in the absence of chemical substance (yeast gene YAR064W): 1.1
- level of expressed mRNA in the presence of chemical substance / level in the absence of chemical substance (yeast gene YBL044W): 0.7
- The level of expressed mRNA in the presence of chemical substance/The level of expressed mRNA in the absence of chemical substance (yeast gene YBL048W): 1.2
- The level of expressed mRNA in the presence of chemical substance/The level of expressed mRNA in the absence of chemical substance (yeast gene YBL107C): 1.9
- level of expressed mRNA in the presence of chemical substance / level in the absence of chemical substance (yeast gene YBR012C): 1.1
- level of expressed mRNA in the presence of chemical substance / level in the absence of chemical substance (yeast gene YBR066C): 1.2
- level of expressed mRNA in the presence of chemical substance / level in the absence of chemical substance (yeast gene YBR124W): 1.2
- level of expressed mRNA in the presence of chemical substance / level in the absence of chemical substance (yeast gene YBR162C): 0.8
- level of expressed mRNA in the presence of chemical substance / level in the absence of chemical substance (yeast gene YBR287W): 1.0
- level of expressed mRNA in the presence of chemical substance / level in the absence of chemical substance (yeast gene YCL042W): 0.6
- level of expressed mRNA in the presence of chemical substance / level in the absence of chemical substance (yeast gene YCL056C): 1.0
- level of expressed mRNA in the presence of chemical substance / level in the absence of chemical substance (yeast gene YCR007C): 1.0
- level of expressed mRNA in the presence of chemical substance / level in the absence of chemical substance (yeast gene YDL046W): 0.7
- The level of expressed mRNA in the presence of chemical substance/The level of expressed mRNA in the absence of chemical substance (yeast gene YDL072C): 0.8
- The level of expressed mRNA in the presence of chemical substance/The level of expressed mRNA in the absence of chemical substance (yeast gene YDL204W): 1.1
- The level of expressed mRNA in the presence of chemical substance/The level of expressed mRNA in the absence of chemical substance (yeast gene YDL222C): 0.7
- level of expressed mRNA in the presence of chemical substance / level in the absence of chemical substance (yeast gene YDR090C): 0.8
